Assay results reported in ChEMBL document CHEMBL1817638, “Ligand polarizability contributes to tau fibril binding affinity” (Bioorg Med Chem, 2011).
The source made the active and inactive calls. The rule behind the calls is not given here.

Tests used:
[1] = Displacement of Thioflavin S from arachidonic acid-induced synthetic Tau 2N4R aggregate by fluorescence assay
[2] = Displacement of Thioflavin S from heparin-induced synthetic Tau 2N4R aggregate by fluorescence assay
[3] = Displacement of Thioflavin S from Octadecyl sulfate-induced synthetic Tau 2N4R aggregate by fluorescence assay
[4] = Displacement of Thioflavin S from synthetic Tau 2N4R aggregate by fluorescence assay at 10 uM probe concentration
[5] = Displacement of Thioflavin T from synthetic Tau 2N4R aggregate by fluorescence assay at 1 uM probe concentration
[6] = Displacement of Thioflavin S from synthetic Tau 2N4R aggregate by fluorescence assay
[7] = biological target: Microtubule-associated protein tau (Homo sapiens) (UniProt P10636); experiment: Displacement of Thioflavin S from recombinant human PHF-tau expressed in Escherichia coli by fluorescence assay
Microtubule-associated protein tau (Homo sapiens), sequence (P10636 whole entry): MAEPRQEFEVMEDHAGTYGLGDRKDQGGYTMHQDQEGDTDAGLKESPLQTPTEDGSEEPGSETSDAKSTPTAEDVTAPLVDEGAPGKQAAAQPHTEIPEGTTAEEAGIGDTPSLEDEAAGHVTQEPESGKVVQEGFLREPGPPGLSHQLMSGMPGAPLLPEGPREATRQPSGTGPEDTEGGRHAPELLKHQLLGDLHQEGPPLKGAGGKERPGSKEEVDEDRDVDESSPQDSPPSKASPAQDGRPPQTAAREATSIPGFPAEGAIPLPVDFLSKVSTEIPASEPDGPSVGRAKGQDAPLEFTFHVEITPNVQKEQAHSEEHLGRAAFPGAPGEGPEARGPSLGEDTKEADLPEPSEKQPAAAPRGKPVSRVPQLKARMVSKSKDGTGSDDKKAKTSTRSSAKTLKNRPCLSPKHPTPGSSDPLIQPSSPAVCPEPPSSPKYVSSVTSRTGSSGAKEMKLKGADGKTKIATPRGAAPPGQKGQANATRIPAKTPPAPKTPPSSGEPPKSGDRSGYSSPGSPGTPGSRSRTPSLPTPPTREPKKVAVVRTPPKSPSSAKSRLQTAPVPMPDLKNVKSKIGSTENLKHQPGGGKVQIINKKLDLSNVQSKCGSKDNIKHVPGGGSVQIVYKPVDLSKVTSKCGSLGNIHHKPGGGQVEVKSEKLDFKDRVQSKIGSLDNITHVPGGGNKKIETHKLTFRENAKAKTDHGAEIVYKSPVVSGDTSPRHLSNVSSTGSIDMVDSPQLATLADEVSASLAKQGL

[8] = biological target: Microtubule-associated protein tau (Homo sapiens) (UniProt P10636); experiment: Displacement of Thioflavin T from Octadecyl sulfate-induced synthetic Tau 0N4R aggregate at 17 pm to 10 uM by fluorescence assay at increasing probe concentration
[9] = biological target: Microtubule-associated protein tau (Homo sapiens) (UniProt P10636); experiment: Displacement of Thioflavin T from Octadecyl sulfate-induced synthetic Tau 0N4R aggregate at 17 pm to 10 uM by fluorescence assay at 0.1 uM probe concentration

SMILES	Activity [1]	Activity [2]	Activity [3]	Activity [4]	Activity [5]	other results
COc1ccc2nc(/N=N/c3ccc(N(C)C)cc3)sc2c1	Active	Active	Active	–	–	–
CN(C)c1ccc2nc3ccc(=[N+](C)C)cc-3sc2c1	Active	Active	Active	inactive	Active	–
O=C(O)c1cc(/N=N/c2ccc(-c3ccc(/N=N/c4ccc(O)c(C(=O)O)c4)cc3)cc2)ccc1O	Active	Active	Active	–	–	–
N=C1C=CC(=C(c2ccc(N)cc2)c2ccc(N)cc2)C=C1	–	–	–	Active	Active	–
CN(C)c1ccc(/C=C2\C(=O)Nc3ccc(I)cc32)cc1	Active	Active	Active	–	–	Activity [6]: Active; Activity [7]: Active
CN(C)c1ccc(C(=C2C=CC(=[N+](C)C)C=C2)c2ccccc2)cc1	–	–	–	Active	Active	–
CN(C)c1ccc(-c2nc3ccccc3s2)cc1	–	–	–	–	–	Activity [8]: inactive; Activity [9]: Active
CN(C)c1ccc2nc3ccc(N)cc3[s+]c2c1	–	–	–	inactive	Active	–
C/N=c1\ccc2nc3ccc(N)cc3sc-2c1	Active	Active	Active	inactive	Active	–
CNc1ccc2nc3ccc(N(C)C)cc3[s+]c2c1	–	–	–	inactive	Active	–
O=C1C=CC(=C(c2ccc(O)cc2)c2ccc(O)cc2)C=C1	–	–	–	Active	Active	–
CN(C)c1ccc(/C=C2/C(=O)Nc3ccccc32)cc1	–	–	–	–	–	Activity [8]: Active; Activity [9]: Active
Nc1ccc2nc3ccc(N)cc3[s+]c2c1	–	–	–	inactive	Active	–
Cc1cc2nc3ccc(N(C)C)cc3[s+]c2cc1N	–	–	–	inactive	Active	–
CN(C)c1ccc(C(=C2C=CC(=[N+](C)C)C=C2)c2ccc(N(C)C)cc2)cc1	–	–	–	Active	Active	–
